The target of test [1] is T1, G-protein coupled receptor 35 (Homo sapiens, UniProt Q9HC97). Briefly: SAR analysis of Agonists of the GPR35 Receptor using an Image-Based Assay - Set 4. [Related pubchem assays (depositor defined):AID2013, AID2026]. The format is functional.
The target of test [2] is T2, Cannabinoid receptor 1 (Homo sapiens, UniProt P21554). Put plainly: SAR analysis of agonists of the Cannabinoid Receptor 1 using an Image-Based Assay - Set 4. [Related pubchem assays (depositor defined):AID2013, AID2026]. The format is functional.
T2 sequence (P21554 whole entry): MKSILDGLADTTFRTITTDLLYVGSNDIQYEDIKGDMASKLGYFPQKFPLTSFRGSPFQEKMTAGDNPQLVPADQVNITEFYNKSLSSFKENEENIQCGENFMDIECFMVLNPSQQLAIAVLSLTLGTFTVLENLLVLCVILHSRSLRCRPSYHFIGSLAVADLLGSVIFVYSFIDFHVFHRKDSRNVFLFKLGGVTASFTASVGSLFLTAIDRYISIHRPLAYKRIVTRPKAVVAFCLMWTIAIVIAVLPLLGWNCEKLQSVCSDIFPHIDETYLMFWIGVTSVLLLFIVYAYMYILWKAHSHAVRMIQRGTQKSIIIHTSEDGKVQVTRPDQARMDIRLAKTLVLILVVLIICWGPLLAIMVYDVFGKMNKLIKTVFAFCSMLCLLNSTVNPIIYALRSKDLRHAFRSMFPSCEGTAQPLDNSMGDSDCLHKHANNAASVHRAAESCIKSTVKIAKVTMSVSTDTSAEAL
The target in test [3] is T1, G-protein coupled receptor 35. Put plainly: SAR analysis of Antagonists of the GPR35 Receptor using an Image-Based Assay - Set 6. [Related pubchem assays (depositor defined):AID2013, AID2026]. The format is functional.
The target of test [4] is T2, Cannabinoid receptor 1. Briefly: SAR analysis of antagonists of the Cannabinoid Receptor 1 using an Image-Based Assay - Set 4. [Related pubchem assays (depositor defined):AID2013, AID2026]. The test is classed as functional.
The target of test [5] is T3, G-protein coupled receptor 55 (Homo sapiens, UniProt Q9Y2T6). Briefly: SAR Analysis of Selective Antagonists of GPR55 using an Image-Based Assay - Set 4. [Related pubchem assays (depositor defined):AID2013, AID2026]. The test is classed as functional.
T3 sequence (Q9Y2T6 whole entry): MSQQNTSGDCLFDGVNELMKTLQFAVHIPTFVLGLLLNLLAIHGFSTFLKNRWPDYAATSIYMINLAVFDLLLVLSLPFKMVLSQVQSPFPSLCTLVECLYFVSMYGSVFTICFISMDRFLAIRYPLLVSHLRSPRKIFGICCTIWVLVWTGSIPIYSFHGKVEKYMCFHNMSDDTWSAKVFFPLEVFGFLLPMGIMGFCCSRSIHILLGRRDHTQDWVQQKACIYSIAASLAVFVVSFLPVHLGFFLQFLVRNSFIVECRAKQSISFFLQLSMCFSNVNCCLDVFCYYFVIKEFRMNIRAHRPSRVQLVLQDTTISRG
Test [6] addresses T4, Cannabinoid receptor 2 (Homo sapiens, UniProt P34972). Briefly: SAR analysis of antagonists of the Cannabinoid Receptor 2 using an Image-Based Assay - Set 3. [Related pubchem assays (depositor defined):AID2013, AID2026]. The format is functional.
Test [7] addresses T4, Cannabinoid receptor 2. Briefly: SAR analysis of agonists of the Cannabinoid Receptor 2 using an Image-Based Assay - Set 3. [Related pubchem assays (depositor defined):AID2013, AID2026]. The test is classed as functional.
A further test concerns the target T5, Hexokinase HKDC1 (Homo sapiens, UniProt Q2TB90).
T5 sequence (Q2TB90 whole entry): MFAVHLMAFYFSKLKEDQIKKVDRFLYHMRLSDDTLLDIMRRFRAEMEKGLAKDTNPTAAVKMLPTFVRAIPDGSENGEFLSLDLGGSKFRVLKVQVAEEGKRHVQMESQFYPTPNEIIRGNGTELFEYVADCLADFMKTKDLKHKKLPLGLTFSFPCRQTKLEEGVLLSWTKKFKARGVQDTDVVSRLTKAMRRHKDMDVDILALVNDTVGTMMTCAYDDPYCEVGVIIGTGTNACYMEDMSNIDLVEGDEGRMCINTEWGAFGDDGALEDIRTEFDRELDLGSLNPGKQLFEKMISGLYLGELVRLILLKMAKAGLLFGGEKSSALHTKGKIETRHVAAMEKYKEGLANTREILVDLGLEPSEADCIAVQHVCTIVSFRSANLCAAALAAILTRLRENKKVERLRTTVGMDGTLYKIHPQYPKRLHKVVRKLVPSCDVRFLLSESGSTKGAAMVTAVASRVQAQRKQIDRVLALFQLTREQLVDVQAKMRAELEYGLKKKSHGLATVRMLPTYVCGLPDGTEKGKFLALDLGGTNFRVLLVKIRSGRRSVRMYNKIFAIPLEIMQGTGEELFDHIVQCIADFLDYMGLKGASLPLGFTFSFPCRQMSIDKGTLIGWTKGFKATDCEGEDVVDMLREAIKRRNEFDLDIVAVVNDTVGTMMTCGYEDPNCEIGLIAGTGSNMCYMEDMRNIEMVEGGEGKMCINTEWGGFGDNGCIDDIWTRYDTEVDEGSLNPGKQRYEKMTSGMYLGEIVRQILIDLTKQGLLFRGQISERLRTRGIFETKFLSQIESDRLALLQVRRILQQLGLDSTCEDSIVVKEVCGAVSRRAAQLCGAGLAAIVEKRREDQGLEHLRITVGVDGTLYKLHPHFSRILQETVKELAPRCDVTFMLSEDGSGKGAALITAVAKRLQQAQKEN
Put plainly: HKDC1 hexokinase activators, dose response, biochemical, W721R variant (AID 504730). The format is functional.

For another test, the target named is T6, Hexokinase-1 (Homo sapiens, UniProt P19367).
T6 sequence (P19367 whole entry): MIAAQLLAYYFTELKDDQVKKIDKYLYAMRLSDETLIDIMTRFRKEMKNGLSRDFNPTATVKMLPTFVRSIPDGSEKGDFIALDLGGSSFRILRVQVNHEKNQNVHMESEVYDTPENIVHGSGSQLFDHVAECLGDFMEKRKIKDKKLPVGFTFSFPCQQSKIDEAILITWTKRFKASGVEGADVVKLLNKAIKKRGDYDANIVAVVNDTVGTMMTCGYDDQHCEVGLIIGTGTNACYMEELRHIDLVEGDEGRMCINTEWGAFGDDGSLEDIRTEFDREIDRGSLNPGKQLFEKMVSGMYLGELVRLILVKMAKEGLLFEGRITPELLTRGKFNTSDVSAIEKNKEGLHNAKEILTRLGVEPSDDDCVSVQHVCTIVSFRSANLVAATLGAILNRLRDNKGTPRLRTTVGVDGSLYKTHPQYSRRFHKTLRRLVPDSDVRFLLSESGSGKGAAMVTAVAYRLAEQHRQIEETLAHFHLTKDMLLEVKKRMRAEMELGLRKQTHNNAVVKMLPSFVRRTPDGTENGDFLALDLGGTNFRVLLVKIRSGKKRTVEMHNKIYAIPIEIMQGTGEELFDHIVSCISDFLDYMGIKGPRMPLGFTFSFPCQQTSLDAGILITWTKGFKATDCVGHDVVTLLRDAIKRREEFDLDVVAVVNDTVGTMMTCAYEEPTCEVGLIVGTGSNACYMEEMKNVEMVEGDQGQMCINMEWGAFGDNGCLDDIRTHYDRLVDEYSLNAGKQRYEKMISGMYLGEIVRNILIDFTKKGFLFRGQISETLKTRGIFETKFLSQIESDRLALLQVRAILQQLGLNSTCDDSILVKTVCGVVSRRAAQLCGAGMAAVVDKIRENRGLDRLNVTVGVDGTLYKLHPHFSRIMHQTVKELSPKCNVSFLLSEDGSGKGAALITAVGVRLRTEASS
Put plainly: hexokinase 1 activators, dose response, selectivity assay for HKDC1 activator project, biochemical (AID 504762). The format is functional.

A further test concerns the target Bcl-2-related protein A1 (Mus musculus, UniProt Q07440). The format is functional.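 Also: confirmatory dose–response counterscreen on Bfl-1, used to check hits from a UBC13 polyubiquitin inhibitor campaign.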
Test [8] addresses T7, Ubiquitin-conjugating enzyme E2 N (Homo sapiens, UniProt P61088).
T7 sequence (P61088 whole entry): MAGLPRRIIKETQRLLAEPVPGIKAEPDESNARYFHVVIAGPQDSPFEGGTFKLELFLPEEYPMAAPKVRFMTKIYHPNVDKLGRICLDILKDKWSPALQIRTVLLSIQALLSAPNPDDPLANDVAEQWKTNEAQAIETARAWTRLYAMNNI
The format is functional.

Test [9] concerns the target T7, Ubiquitin-conjugating enzyme E2 N. The test is classed as functional. This is another data set of the same source.
In the next test the target is T8, Streptokinase A (Streptococcus pyogenes serotype M1, UniProt P10520).
T8 sequence (P10520 whole entry): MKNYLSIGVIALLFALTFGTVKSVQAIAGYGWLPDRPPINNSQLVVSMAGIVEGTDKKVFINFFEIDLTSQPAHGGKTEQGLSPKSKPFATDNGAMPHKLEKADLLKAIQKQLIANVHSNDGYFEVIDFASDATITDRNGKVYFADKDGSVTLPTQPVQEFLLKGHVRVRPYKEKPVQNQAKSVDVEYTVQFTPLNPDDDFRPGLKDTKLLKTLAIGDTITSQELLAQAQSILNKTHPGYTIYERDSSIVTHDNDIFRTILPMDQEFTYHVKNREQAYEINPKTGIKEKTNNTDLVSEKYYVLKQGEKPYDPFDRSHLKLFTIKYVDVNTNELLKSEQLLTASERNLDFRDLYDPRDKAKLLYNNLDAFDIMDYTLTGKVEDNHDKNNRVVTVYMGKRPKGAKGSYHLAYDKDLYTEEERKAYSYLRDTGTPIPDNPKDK
Briefly: S. pyogenes streptokinase expression inhibitors, potency, dose response, plasminogen activation absorbance, OD405 (AID 1914).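 Also: secreted streptokinase activity via plasminogen activation per viability signal from cell pellet.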 The test is classed as functional, Streptococcus pyogenes M1 GAS.

Test [10] deals with T3, G-protein coupled receptor 55. Put plainly: GPR55 antagonists blocking LPI-driven arrestin recruitment, primary screen, imaging, U2OS, beta-arrestin-GFP, LPI agonist (AID 2013).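 Also: antagonist potency measured as reduced agonist-driven arrestin aggregation.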 The format is functional.
Another test has as its system Streptococcus. Briefly: Group A Streptococcus viability loss, dose response, counter-screen for streptokinase expression inhibitor project, luminescence, BacTiterGlo (AID 1915).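 Also: potency for reduction of bacterial viability or growth.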 The settings on record: read-out: EC50. The test is classed as functional, organism-based.
For test [11], the target named is T2, Cannabinoid receptor 1. Briefly: SAR analysis of antagonists of the Cannabinoid Receptor 1 using an Image-Based Assay - Set 2. [Related pubchem assays (depositor defined):AID2013, AID2026]. The test is classed as functional.
In test [12] the target is T1, G-protein coupled receptor 35. Put plainly: SAR analysis of Agonists of the GPR35 Receptor using an Image-Based Assay - Set 2. [Related pubchem assays (depositor defined):AID2013, AID2026]. The test is classed as functional.
In test [13] the target is T4, Cannabinoid receptor 2. Briefly: SAR analysis of antagonists of the Cannabinoid Receptor 2 using an Image-Based Assay. [Related pubchem assays (depositor defined):AID2013, AID2026]. The test is classed as functional.
Another test concerns the target Trypsin (Sus scrofa, UniProt P00761). Briefly: porcine trypsin inhibitors, dose response, selectivity assay for Rce1 protease inhibitor project, biochemical, quenched peptide fluorescence, cherry-pick (AID 488789).
Test [14] addresses T2, Cannabinoid receptor 1. Briefly: SAR analysis of agonists of the Cannabinoid Receptor 1 using an Image-Based Assay - Set 2. [Related pubchem assays (depositor defined):AID2013, AID2026]. The test is classed as functional.
For a further test, the target named is T9, CAAX prenyl protease 2 (Saccharomyces cerevisiae S288c, UniProt Q03530).
T9 sequence (Q03530 whole entry): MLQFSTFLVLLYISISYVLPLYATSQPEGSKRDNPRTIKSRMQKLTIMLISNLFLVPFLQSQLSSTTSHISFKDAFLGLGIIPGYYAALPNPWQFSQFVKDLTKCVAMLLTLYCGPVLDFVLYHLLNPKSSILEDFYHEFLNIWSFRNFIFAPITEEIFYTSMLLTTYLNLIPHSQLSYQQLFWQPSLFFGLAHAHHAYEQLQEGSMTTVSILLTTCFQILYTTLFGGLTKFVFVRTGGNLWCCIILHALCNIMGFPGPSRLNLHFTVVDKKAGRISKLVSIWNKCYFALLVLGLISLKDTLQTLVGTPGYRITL
The format is biochemical.

For test [15], the target named is T1, G-protein coupled receptor 35. Put plainly: SAR analysis of Antagonists of the GPR35 Receptor using an Image-Based Assay - Set 3. [Related pubchem assays (depositor defined):AID2013, AID2026]. The test is classed as functional.
Test [16] concerns the target T3, G-protein coupled receptor 55. Briefly: GPR55 antagonist potency of analogs, SAR follow-up, imaging, U2OS, beta-arrestin-GFP, LPI agonist, set 2 (AID 2820). The format is functional.
Test [17] addresses T4, Cannabinoid receptor 2. Briefly: SAR analysis of agonists of the Cannabinoid Receptor 2 using an Image-Based Assay. [Related pubchem assays (depositor defined):AID2013, AID2026]. The test is classed as functional.
Test [18] concerns the target T10, Small ubiquitin-related modifier 1 (Homo sapiens, UniProt P63165). Briefly: inhibitors of SUMO1 peptide binding, dose response, biochemical, fluorescence polarization, uHTS hits (AID 624382). The format is functional. Conditions: read-out: IC50_Mean.
In test [19] the target is T11, Fatty acid synthase (Homo sapiens, UniProt P49327). Briefly: FAS thioesterase domain inhibitors, dose response, biochemical, endpoint fluorescence intensity, uHTS hits (AID 624327).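 Also: fluorescence from hydrolysis of an O-methyl fluorescein acyl ester substrate by the enzyme.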 The test is classed as functional.
T11 sequence (P49327 whole entry, the tested form may be a part): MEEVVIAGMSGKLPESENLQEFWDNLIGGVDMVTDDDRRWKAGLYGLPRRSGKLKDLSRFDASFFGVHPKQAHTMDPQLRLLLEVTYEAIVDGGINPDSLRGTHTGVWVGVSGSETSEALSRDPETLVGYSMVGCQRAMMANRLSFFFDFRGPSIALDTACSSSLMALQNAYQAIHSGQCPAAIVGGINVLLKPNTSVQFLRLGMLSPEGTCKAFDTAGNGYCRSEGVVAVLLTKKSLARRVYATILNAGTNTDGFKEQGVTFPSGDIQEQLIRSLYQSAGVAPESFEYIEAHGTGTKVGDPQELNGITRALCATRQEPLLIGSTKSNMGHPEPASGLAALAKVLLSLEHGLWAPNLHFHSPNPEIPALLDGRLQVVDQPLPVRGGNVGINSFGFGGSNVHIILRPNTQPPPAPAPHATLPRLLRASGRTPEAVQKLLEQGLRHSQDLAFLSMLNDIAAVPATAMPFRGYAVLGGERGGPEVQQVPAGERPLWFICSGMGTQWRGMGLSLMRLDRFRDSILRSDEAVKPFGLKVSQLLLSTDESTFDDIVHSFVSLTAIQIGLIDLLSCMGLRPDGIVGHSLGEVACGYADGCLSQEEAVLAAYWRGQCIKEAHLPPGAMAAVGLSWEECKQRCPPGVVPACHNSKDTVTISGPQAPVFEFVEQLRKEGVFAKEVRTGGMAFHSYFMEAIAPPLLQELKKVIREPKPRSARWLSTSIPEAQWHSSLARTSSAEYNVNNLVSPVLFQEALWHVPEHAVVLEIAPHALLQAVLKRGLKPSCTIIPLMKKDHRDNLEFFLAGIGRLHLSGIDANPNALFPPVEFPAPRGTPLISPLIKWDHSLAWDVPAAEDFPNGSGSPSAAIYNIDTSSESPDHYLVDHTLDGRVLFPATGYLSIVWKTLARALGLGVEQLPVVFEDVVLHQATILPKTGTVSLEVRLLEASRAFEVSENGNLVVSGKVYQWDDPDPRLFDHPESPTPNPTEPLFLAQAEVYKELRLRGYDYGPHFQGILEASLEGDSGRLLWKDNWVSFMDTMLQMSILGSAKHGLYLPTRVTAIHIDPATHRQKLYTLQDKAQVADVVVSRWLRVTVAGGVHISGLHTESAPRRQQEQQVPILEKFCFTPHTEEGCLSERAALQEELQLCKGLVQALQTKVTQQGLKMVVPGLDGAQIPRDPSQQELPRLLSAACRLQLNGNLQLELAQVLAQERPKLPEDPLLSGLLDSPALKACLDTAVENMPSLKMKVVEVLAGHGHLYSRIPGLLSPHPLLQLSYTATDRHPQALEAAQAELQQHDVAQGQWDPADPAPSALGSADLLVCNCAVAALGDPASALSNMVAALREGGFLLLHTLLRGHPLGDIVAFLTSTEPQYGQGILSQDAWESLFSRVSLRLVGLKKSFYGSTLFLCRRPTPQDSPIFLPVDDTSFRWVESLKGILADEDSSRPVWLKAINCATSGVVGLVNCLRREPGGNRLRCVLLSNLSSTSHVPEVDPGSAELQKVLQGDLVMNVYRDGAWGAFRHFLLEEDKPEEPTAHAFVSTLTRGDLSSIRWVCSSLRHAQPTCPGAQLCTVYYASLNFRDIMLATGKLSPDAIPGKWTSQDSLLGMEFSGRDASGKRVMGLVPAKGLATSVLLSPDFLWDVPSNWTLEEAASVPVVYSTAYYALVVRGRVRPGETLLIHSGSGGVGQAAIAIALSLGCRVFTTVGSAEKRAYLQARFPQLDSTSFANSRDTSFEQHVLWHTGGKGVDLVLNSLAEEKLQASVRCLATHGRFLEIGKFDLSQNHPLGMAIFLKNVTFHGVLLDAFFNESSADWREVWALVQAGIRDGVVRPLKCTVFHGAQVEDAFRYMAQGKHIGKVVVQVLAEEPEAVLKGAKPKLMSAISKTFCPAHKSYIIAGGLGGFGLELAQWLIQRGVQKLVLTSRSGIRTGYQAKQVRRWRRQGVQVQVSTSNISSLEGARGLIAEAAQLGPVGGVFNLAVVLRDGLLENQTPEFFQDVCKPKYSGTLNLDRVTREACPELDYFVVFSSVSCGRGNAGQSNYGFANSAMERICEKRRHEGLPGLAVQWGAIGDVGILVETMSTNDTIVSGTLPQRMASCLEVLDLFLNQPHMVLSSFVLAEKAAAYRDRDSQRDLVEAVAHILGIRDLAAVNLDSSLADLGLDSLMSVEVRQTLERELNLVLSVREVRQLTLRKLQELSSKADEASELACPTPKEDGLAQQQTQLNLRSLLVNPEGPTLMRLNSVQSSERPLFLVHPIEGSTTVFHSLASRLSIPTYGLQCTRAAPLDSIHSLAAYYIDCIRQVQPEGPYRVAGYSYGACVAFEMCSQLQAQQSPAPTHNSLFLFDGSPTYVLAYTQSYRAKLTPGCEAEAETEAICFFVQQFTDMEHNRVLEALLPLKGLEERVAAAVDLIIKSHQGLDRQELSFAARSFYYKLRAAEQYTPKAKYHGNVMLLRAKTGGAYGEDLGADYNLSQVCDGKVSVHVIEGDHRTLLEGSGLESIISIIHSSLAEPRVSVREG
The target in test [20] is T10, Small ubiquitin-related modifier 1. Put plainly: inhibitors of SUMO1 partner interactions, dose response, biochemical, FRET (AID 624383). The format is functional. The settings on record: read-out: IC50_Mean.
The target of test [21] is T11, Fatty acid synthase. Put plainly: FAS thioesterase domain inhibitors, dose response, biochemical, kinetic fluorescence intensity (AID 624326).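 Also: rate of fluorescence rise from hydrolysis of a fluorogenic O-methyl fluorescein ester substrate.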 The test is classed as functional.

This passage reports EC50, IC50 and AC50 results from ChEMBL document CHEMBL1201862, “PubChem BioAssay data set” (2004).

Structures are written as SMILES. Calls of active or inactive are those of the source.

T4 sequence (P34972 whole entry): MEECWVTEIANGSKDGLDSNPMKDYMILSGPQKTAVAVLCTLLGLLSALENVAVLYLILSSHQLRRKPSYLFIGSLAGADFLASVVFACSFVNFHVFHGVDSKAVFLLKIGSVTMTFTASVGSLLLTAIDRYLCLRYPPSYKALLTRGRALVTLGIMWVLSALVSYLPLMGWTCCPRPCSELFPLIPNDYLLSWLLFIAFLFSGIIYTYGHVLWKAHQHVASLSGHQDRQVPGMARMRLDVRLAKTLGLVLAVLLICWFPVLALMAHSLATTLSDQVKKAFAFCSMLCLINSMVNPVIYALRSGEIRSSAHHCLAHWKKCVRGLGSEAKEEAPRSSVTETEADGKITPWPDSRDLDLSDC
T1 sequence (Q9HC97 whole entry): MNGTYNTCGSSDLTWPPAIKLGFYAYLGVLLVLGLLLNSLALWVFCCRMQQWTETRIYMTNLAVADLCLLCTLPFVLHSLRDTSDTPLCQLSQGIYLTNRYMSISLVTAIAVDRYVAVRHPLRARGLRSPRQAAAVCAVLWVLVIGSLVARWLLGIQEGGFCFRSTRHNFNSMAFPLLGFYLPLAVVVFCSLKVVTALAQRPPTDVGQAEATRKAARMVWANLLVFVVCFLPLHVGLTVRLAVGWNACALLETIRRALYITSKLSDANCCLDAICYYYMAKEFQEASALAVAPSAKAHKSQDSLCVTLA
T10 sequence (P63165 whole entry, the tested form may be a part): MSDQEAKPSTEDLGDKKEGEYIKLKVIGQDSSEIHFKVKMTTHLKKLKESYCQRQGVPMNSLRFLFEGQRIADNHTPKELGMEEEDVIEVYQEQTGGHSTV
Chain of Trypsin (P00761 whole entry): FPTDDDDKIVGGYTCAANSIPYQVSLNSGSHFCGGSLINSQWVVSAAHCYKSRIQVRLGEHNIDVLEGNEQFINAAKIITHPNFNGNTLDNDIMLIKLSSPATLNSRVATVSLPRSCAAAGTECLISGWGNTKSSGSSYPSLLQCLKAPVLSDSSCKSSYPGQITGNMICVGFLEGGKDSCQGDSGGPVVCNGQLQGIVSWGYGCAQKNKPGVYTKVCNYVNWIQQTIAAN
Chain of Bcl-2-related protein A1 (Q07440 whole entry): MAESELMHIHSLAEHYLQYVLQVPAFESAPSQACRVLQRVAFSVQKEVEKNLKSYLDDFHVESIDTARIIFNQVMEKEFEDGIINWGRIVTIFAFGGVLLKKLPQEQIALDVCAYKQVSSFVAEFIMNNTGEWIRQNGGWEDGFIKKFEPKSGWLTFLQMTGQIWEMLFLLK

With `Cc1nc(N2CCN(C(=O)C3CCCO3)CC2)c2c3c(sc2n1)CCCC3` (stereo not drawn), the EC50 (in [1]; on Cannabinoid receptor 1 [2]; on Cannabinoid receptor 2 [7]) was > 32 µM (inactive) each time. Moreover, the IC50 (in [3]; on Cannabinoid receptor 1 [4]; in test [5]; on Cannabinoid receptor 2 [6]) was > 32 µM (inactive) throughout.

With `O=S(=O)(NC1c2cccc3cccc(c23)C1N1CCN(CCO)CC1)c1ccccc1` (stereo not drawn), the 50% effective concentration (EC50) at Hexokinase HKDC1 was 18.1 µM (active); on Hexokinase-1, 24 µM (inactive).

In the case of `CCCCN(C(=O)c1ccco1)c1nnc(-c2cc(OC)c(OC)c(OC)c2)s1`, the IC50 at Bcl-2-related protein A1 is > 20 µM (inactive); in test [8] it was 10.4 µM (active); in test [9], 9.79 µM (active).

As to `CC(C)(C)OC(=O)N1CCC(c2cc(O)n3ncc(C(=O)Nc4ccc(F)c(Cl)c4)c3n2)CC1`, the EC50 is > 150 µM (not active) at Streptokinase A; > 150 µM (not active) in the test on Streptococcus; 5.23 µM (active) in test [12]; > 32 µM (inactive) at Cannabinoid receptor 1 [14]; > 32 µM (inactive) on Cannabinoid receptor 2 [17]. The IC50 is 1.41 µM (active) in [10]; 10.5 µM (inactive) on Cannabinoid receptor 1 [11]; > 32 µM (inactive) on Cannabinoid receptor 2 [13]; 25.4 µM (inactive) in test [15]; 0.948 µM (active) in [16]; > 66.6 µM (inactive) in [18]. Moreover, the IC50 was 8.24 µM (active) at Fatty acid synthase [19], 9.68 µM (active) in test [20] and 5.64 µM (active) on Fatty acid synthase [21]. In addition, the results for the AC50 at Trypsin and on CAAX prenyl protease 2 were 77.2 µM (active) and 17.8 µM (active), respectively.
